Source: patent US20080213175A1, “Click chemistry-derived cyclic peptidomimetics as integrin markers” (priority 2006, published 2008)

What was measured:
[1] = system: tumor xenograft of either U87MG human glioblastoma or A431 human squamous cell carcinoma; details: mouse, in vivo
Procedure: PET Studies: In vivo microPET imaging of a tumor-bearing mouse is performed on an anesthetized mouse bearing tumor xenograft of either U87MG human glioblastoma or A431 human squamous cell carcinoma after administration of cyclic peptidomimetic. […] See e.g. FIG. 3-6.

Integrin αvβ3 = Integrin αvβ3 (Homo sapiens, UniProt P05106+P06756); test: Surface plasmon resonance (SPR) 'inverse' integrin αvβ3 assay; assay type: binding
Procedure: Compound 17 was immobilized onto a CM5 chip (Supplier: Biacore. CM5 is a SPR chip with a carboxymethylated dextran covalently attached to a gold surface) via amine coupling. Integrin αvβ3 samples at 25 nM concentration, premixed with a wide range of concentrations of RGD test compound (0˜1000 nm), were flowed through the CM5 chip at 14° C. The interactions between the flowing integrin αvβ3 sample and the surface of the chip were recorded by Biacore sensorgram signals. Flow cell #1 served as blank control and the flow cell #2 were coated with compound 17. After subtraction the blank signal of flow cell #1 from the signal of flow cell #2, the resulting sensorgram signals from each cycle were converted into percentage values. Then the Kd and IC50 values for each RGD compounds were calculated.

[2] = biological target: T1, Integrin αvβ3 expressing U87MG cells (Homo sapiens, UniProt P05106+P06756); test: Cell-based integrin binding competition assay; details: competition with 2 μM fluorescence labeled compound 18, 2 hrs
T1 construct: Integrin αvβ3 expressing U87MG cells; endogenous in cells; host or cells: U87MG
Procedure: Integrin αvβ3 expressing U87MG cells were incubated with a series of concentration of RGD compounds (0-32 μM) in the presence of 2 μM of green fluorescence labeled compound 18 for 2 hrs. After incubation, cells were washed three times to eliminate unbound RGD compounds. Fluorescence readings (RLU) were then taken (excitation at 491 nm, emission at 518 nm, cutoff 515 nm).
The results are consistent with that of surface plasmon resonance assay.

[3] = system: integrin-positive M21 melanoma xenograft; details: integrin-positive M21 melanoma xenograft model; cited from earlier work
[4] = system: A431 human squamous cell carcinoma model; details: tumor cells integrin negative; cited from earlier work
[5] = cited from earlier work
integrin = integrin (Homo sapiens, UniProt P05106+P06756); details: cited from earlier work
[6] = SPR, compared with RGDfK, FIG. 1

Question: Which results are given for `N=C(N)NCCC[C@@H]1NC(=O)[C@H](CCCCNC(=O)CCN(CCC(=O)NCCCC[C@H]2C(=O)N[C@@H](CCCNC(=N)N)C(=O)NCC(=O)N[C@@H](CC(=O)O)C(=O)N[C@@H](Cc3ccccc3)c3cn2nn3)C(=O)CCOCCOCCOCCOCCNC(=O)Cn2cc(CCCF)nn2)n2cc(nn2)[C@H](Cc2ccccc2)NC(=O)[C@H](CC(=O)O)NC(=O)CNC1=O` [Compound 3]?
Answer: renal clearance and liver uptake [1]: favorable renal clearance and very little liver uptake; tumor uptake and retention [1]: good tumor uptake and retention; wash-out rate from muscle and other healthy tissues [1]: fast wash-out rate

Question: Which “binding affinity to integrin αvβ3” value (Integrin αvβ3; 'inverse' SPR, compound 17 immobilized on CM5 chip, integrin αvβ3 25 nM, 14° C.) does the source give for `N=C(N)NCCC[C@@H]1NC(=O)[C@H](CCCCN)n2cc(nn2)[C@H](Cc2ccccc2)NC(=O)[C@H](CC(=O)O)NC(=O)CNC1=O` [Compound 1] here?
Answer: surprisingly high binding affinity

Question: And the IC50 (Integrin αvβ3; [6])?
Answer: very close to those of RGDfK

Question: And the Kd (Integrin αvβ3; [6])?
Answer: very close to those of RGDfK

Question: And the potency [2]?
Answer: very similar in potency

Question: With `CC([18F])C(=O)NC[C@H]1OC(C(=O)NCCCC[C@@H]2NC(=O)C(Cc3ccccc3)NC(=O)[C@H](CC(=O)O)NC(=O)CNC(=O)[C@H](CCCNC(=N)N)NC2=O)[C@@H](O)C(O)C1O` (stereo partly drawn) [[^18F]galacto-RGD] as the compound, how does the tumor uptake [3] read?
Answer: integrin αvβ3-specific tumor uptake

Question: What about the “visualization of integrin αvβ3 expression from tumor vasculature” value [4] of the same compound?
Answer: sensitive enough for visualization of integrin αvβ3 expression

Question: And the “activity accumulation in organs” value ([5]; both preclinical models and human studies)?
Answer: prominent activity accumulation in the liver, kidneys, spleen, and intestines

Question: What about the safety of administration ([5]; healthy volunteers and a limited number of cancer patients) of the same compound?
Answer: could be safely administered to patients

Question: And the pharmacokinetic behavior ([5]; human, in vivo)?
Answer: unfavorable pharmacokinetic behavior

Question: And the “tumor standard uptake values” ([5]; human, in vivo)?
Answer: modest tumor standard uptake values

Question: And the “delineation of integrin-positive lesions” value ([5]; initial clinical trials)?
Answer: able to delineate certain lesions that were integrin-positive with reasonable contrast

Question: What about the integrin binding affinity (integrin) of the same compound?
Answer: relatively low integrin binding affinity

Question: What does the source list for `N=C(N)NCCC[C@@H]1NC(=O)[C@H](CCCCNC(=O)CCOCCOCCOCCOCCNC(=O)Cn2cc(CCCF)nn2)n2cc(nn2)[C@H](Cc2ccccc2)NC(=O)[C@H](CC(=O)O)NC(=O)CNC1=O` [Compound 2]?
Answer: renal clearance and liver uptake [1]: favorable renal clearance and very little liver uptake; tumor uptake and retention [1]: good tumor uptake and retention; wash-out rate from muscle and other healthy tissues [1]: fast wash-out rate
